According to US8394775B2 (Amorepacific Corporation, priority 2005, dated 2013):
pIC50: −log10 of the molar value.

Assays:
procollagen type (I) = experiment: Promotion of collagen biosynthesis in fibroblasts (procollagen type (I) ELISA); format: cell-based; conditions: 24 hours, compared to 100 of the non-treatment group
Procedure: Firstly, fibroblasts (PromoCell, Germany) were seeded in a 24 well plate at a level of 10^5 per well and cultured until they grew up to 90%. […] The supernatant was taken and examined for increase and decrease of procollagen using procollagen type (I) ELISA kit (proc/; ollagen type (I)). The result is shown in Table 3, in which the synthesis is compared to 100 of the non-treatment group.

collagenase = experiment: Inhibition of collagenase expression in human fibroblasts; format: cell-based; conditions: molar concentration of 10^−4, 24 hours, compared to 100 of the non-treatment group
Procedure: (§1) Firstly, human fibroblasts were seeded in a 96-well microtiter plate containing DMEM supplemented with 2.5% fetal bovine serum at a level of 5000 cells per well and cultured until they grew up to 90%.
Then, the culture fluid was examined for formation of collagenase using a commercially available collagenase measuring kit (Amorsham pharmacia, USA).
(§2) Firstly, the taken cell culture fluid was added to the 96-well plate having the primary collagenase antibody evenly applied and left for antigen-antibody reaction in a thermostat for 3 hours. After 3 hours, the secondary collagen antibody having a chromophore bonded thereto was added to the 96-well plate and left for reaction for 15 minutes. After 15 minutes, a color developing agent was added and left for 15 minutes. Then, 1M sulphuric acid was added to quit the reaction (color development), upon which the color of the reaction became yellow. The yellow level varied according to the progress of the reaction.
(§3) The absorption of the 96-well plate of the yellow color was measured at 405 nm using a spectrophotometer. The expression of collagenase was calculated according to the following Equation I. Here, the absorption of the control was the absorption of the cell culture fluid taken from the group which had not been treated with the test materials. Expression of collagenase (%) (A/B)×100 [Equation I] • (A: absorption of cells treated with the test materials B: absorption of control)
Meanwhile, the result of measurement of inhibition effect of the test materials on collagenase expression in human fibroblasts is shown in Table 4, in which in which the expression of collagenase is compared to 100 of the non-treatment group.

elastase = experiment: Inhibition of elastase expression in human fibroblasts; format: cell-based; conditions: molar concentration of 10^−4, 24 hours, compared to 100 of the non-treatment group
Procedure: as §1
Then, the culture fluid was examined for formation of elastase using a commercially available elastase measuring kit (Amorsham pharmacia, USA).
as §2, with “elastase” for “collagenase”
as §3, with “elastase” for “collagenase”, “II.” for “I.”, “elastase (%)=(A/B)×100” for “collagenase (%) (A/B)×100”, “II]” for “I]”
Meanwhile, the result of measurement of inhibition effect of the test materials on elastase expression in human fibroblasts is shown in Table 5, in which the expression of elastase is compared to 100 of the non-treatment group.

[1] = tested on: pigment cells (Mel-Ab cell); experiment: Inhibition of melanin synthesis using pigment cell of mouse; format: cell-based; conditions: 10 ppm for continuous 3 days, non-treatment group given as 100.0
Text: Here, hydroquinone was a positive control.

human skin = experiment: Whitening effect on human skin after UV-induced darkening; format: in vivo; conditions: 1% applied on UV-darkened upper arm skin, 10 weeks, colorimeter
Procedure: Firstly, 12 healthy males were enlisted for the test. They had opaque tape with a 1.5 cm hole attached on the upper arm. UV rays 1.5 to 2 times greater than the minimal erythema dose were irradiated to induce darkening of the skin.
For 10 weeks, the change was observed. Every 1 week, the color of the skin was measured by colorimeter CR2002 (Japan, Minolta)
Then, the difference of skin color (ΔL*) between the point when the application of the test material was initiated and the point when the application of the test material was completed was calculated according to the following equation and the result is shown in Table 7. Meanwhile, the whitening effect was determined by comparison of ΔL* between the sample applied part and the control. When ΔL* value is about 2, the whitening of the pigmentation was significant. When ΔL* is over 1.5, it was considered that the sample had whitening effect. ΔL*=(L*at the point when the application is completed)−(L*at the point when the application is initiated) [Equation 4]

[2] = tested on: Human keratinocytes HaCaT cell line; experiment: Inhibition of reactive oxygen species (ROS) production using fluorescent material (DCFH-DA), UVB irradiation; format: cell-based; conditions: HaCaT cells, UVB 30 mJ/cm^2, DCF fluorescence
Procedure: The cell lines used in the test was Human keratinocytes HaCaT cell line. The cells were distributed to a 96 well black plate for fluorescence measurement at 2.0×10^4 per each well and cultured in DMEM (Dulbeccos Modification of Eagles Medium, FBS 10%) supplemented with penicillin/streptomycin at 37° C., 5% CO2 for 1 day, followed by treatment with test samples. Serum free DMEM (FBS free) supplemented with penicillin/streptomycin as shown in Table 2 was used for cultivation of the medium which had been treated with samples. The cultivation was performed at 37° C., 5% CO2 for 1 day.
After cultivation of 24 hours with test samples, the plate was washed with HCSS (HEPES-buffered control salt solution) to remove the medium and the HCSS was treated with 100 μl of 20 μM DCFH-DA (2′,7′-dichlorodihydro-fluorescein diacetate, Molecular Probes, Inc). Then, the plate was kept under conditions of 37° C., 5% CO2 for 20 minutes and washed with HCSS. Next, the plate was treated with 100 μl of HCSS comprising samples at different concentrations and the fluorescence intensity of DCF (dichlorofluorescein), which had been oxidized […] at the early stage, was measured using a fluorescent plate reader (Ex=485 nm, Em=530 nm). The fluorescence, right after the irradiation of UVB (30 mJ/cm^2) or 3 hours later of the irradiation, was measured using a fluorescent plate reader (Ex=485 nm, Em=530 nm).
As control, Trolox was used.

[3] = DPPH test of anti-oxidant effect; format: biochemical; conditions: read-out: DPPH analysis IC50 (concentration, upon which the absorption is decreased to 50%); 100 μM DPPH in ethanol, 37° C., 30 minutes, absorption at 540 nm
Procedure: A method for evaluating anti-oxidant effect through change of absorption generated by reduction of the organic radical DPPH (1,1-diphenyl-2-picryl hydrazyl) (while anti-oxidant is oxidized) is used. The change of absorption, which was decreased when the oxidization of DPPH was inhibited, was measured, as compared to the control.
The absorption was measured at 540 nm. The control sample was synthesized anti-oxidant Trolox, commonly used.

Molecule | Synthesis (%) of procollagen (procollagen type (I)) [%] | Expression of collagenase (%) (collagenase) | Expression of elastase (%) (elastase) | Melanin content (% of untreated control) [1] [%] | Whitening effect (ΔL*) (human skin) | Inhibition effect on ROS production (control %) ([2]; 6.25 uM) [%] | Inhibition effect on ROS production (control %) ([2]; 12.5 uM) [%] | Inhibition effect on ROS production (control %) ([2]; 25 uM) [%] | Inhibition effect on ROS production (control %) ([2]; 50 uM) [%] | pIC50 [3] | activity at 6.25 µM ([2]; Homo sapiens, light or radiation study, 6.25 uM, read-out: Inhibition effect on ROS production (control %)) [%] | activity at 12.5 µM ([2]; Homo sapiens, light or radiation study, 12.5 uM, read-out: Inhibition effect on ROS production (control %)) [%] | activity at 25 µM ([2]; Homo sapiens, light or radiation study, 25 uM, read-out: Inhibition effect on ROS production (control %)) [%] | activity at 50 µM ([2]; Homo sapiens, light or radiation study, 50 uM, read-out: Inhibition effect on ROS production (control %)) [%]
O=C(O[C@@H]1Cc2c(O)cc(O)cc2O[C@@H]1c1cc(O)c(O)c(O)c1)c1cc(O)c(O)c(O)c1 [EGCG, reference compound] | 125 | 60 | 68 | – | – | – | – | – | – | – | – | – | – | –
Oc1ccc(O)cc1 [Hydroquinone, hydroquinone, reference compound] | – | – | – | 41.1 | 1.90 ± 0.11 | – | – | – | – | – | – | – | – | –
COc1ccc(-c2oc3c(CC=C(C)C)c(O[C@@H]4O[C@H](CO)[C@@H](O)[C@H](O)[C@H]4O)cc(O)c3c(=O)c2O[C@@H]2O[C@@H](C)[C@H](O)[C@@H](O)[C@H]2O)cc1 [Icariin] | 117 | 81 | 87 | 84.5 | 1.10 ± 0.13 | 98.1 | 89.7 | 88.6 | 86.3 | – | – | – | – | –
COc1ccc(-c2oc3c(CC=C(C)C)c(O)cc(O)c3c(=O)c2O[C@@H]2O[C@H](C)[C@@H](O)[C@H](O)[C@@H]2O)cc1 [Icariside II] | 138 | 66 | 63 | 38.2 | 1.83 ± 0.25 | 63.2 | 62.0 | 56.6 | 46.6 | 5.15 | – | – | – | –
COc1ccc(-c2oc3c(CC=C(C)C)c(O[C@@H]4O[C@H](CO)[C@@H](O)[C@H](O)[C@H]4O)cc(O)c3c(=O)c2O)cc1 [Icariside I] | 145 | 64 | 56 | 38.6 | 1.88 ± 0.17 | 65.6 | 61.4 | 54.8 | 43.8 | 5.11 | – | – | – | –
COc1ccc(-c2oc3c(CC=C(C)C)c(O)cc(O)c3c(=O)c2O)cc1 [Icaritin] | 146 | 66 | 55 | 39.5 | 1.89 ± 0.25 | 68.2 | 61.5 | 51.7 | 43.2 | 5.17 | – | – | – | –
Cc1c(C)c2c(c(C)c1O)CCC(C)(C(=O)O)O2 (stereo not shown) [Trolox, reference compound] | – | – | – | – | – | – | – | – | – | 5.06 | 76.9 | 74.6 | 73.3 | 58.5
tocopherol [reference compound] | 118 | 75 | 88 | – | – | – | – | – | – | – | – | – | – | –
